Columns and labels:
FGFR1 = FGFR1 (Homo sapiens, UniProt P11362); experiment: Enzymatic activity test (LabChip EZ Reader II / Caliper), FGFR1; format: biochemical; settings: FGFR1(h), FAM-labelled polypeptide substrate and ATP, 30 min incubation; read-out: Inhibitory activity against FGFR (IC50) FGFR1
Procedure: (§1) Experimental Example 1: Enzymatic Activity Test of the Compounds of the Present Invention
(§2) Test substance: The compounds of the present invention, the structures of which are shown above.
(§3) Test Instrument: The LabChip EZ Reader II drug screening platform.
(§4) 1. Preparation for compound plate a) 96-well plates, 10 dose groups, 3-fold serial dilutions, added DMSO to each well, maximal concentration of 500 μM. b) 384-well plates, diluted with 1× kinase buffer (50 mM HEPES, pH 7.5; 0.0015% Brij-35; 2 mM DTT), each well containing 5× compound dissolved in 5 μL of 10% DMSO. The negative control well was 5 μL of 1× kinase buffer containing 10% DMSO. 2. Experimental procedure
(§5) […] in 1× kinase buffer were reacted with 2.5× enzyme solution at room temperature for 10 min, and then the FAM-labelled polypeptide substrate and ATP were added to initiate reaction. After incubation for 30 min, 25 μL of terminal solution (100 mM HEPES, pH 7.5; 0.015% Brij-35; 0.2% Coating Reagent #3; 50 mM EDTA) was added to terminate the reaction, and the final data were read by Caliper.

FGFR3 = FGFR3 (Homo sapiens, UniProt P22607); experiment: Enzymatic activity test (LabChip EZ Reader II / Caliper), FGFR3; format: biochemical; settings: FGFR3(h), FAM-labelled polypeptide substrate and ATP, 30 min incubation; read-out: Inhibitory activity against FGFR (IC50) FGFR3
FGFR3, sequence (P22607 23-806): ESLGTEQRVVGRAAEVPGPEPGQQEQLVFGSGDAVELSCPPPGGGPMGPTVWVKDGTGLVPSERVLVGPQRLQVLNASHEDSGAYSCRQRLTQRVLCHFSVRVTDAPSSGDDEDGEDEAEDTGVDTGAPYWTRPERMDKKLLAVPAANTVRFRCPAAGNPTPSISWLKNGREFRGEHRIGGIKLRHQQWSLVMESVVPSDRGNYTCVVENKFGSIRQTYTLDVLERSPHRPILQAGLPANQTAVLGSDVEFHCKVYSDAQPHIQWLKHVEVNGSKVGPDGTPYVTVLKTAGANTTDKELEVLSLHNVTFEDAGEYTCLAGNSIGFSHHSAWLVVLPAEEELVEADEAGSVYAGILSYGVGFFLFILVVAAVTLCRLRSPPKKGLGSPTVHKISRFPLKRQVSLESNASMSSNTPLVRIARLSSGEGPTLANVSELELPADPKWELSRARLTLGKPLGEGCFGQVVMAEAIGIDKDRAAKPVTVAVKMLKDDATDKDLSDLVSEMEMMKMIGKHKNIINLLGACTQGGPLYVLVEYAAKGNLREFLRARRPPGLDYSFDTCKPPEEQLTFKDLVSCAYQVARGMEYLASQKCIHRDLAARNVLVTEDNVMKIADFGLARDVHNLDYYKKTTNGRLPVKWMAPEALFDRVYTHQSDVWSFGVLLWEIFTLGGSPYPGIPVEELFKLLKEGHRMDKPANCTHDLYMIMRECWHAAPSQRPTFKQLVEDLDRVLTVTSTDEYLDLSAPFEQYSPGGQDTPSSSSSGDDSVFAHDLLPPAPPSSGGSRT
Procedure: as §1, §2, §3, §4, §5

FGFR4 = FGFR4 (Homo sapiens, UniProt P22455); experiment: Enzymatic activity test (LabChip EZ Reader II / Caliper), FGFR4; format: biochemical; settings: FGFR4(h), FAM-labelled polypeptide substrate and ATP, 30 min incubation; read-out: Inhibitory activity against FGFR (IC50) FGFR4
FGFR4, sequence (P22455 22-802): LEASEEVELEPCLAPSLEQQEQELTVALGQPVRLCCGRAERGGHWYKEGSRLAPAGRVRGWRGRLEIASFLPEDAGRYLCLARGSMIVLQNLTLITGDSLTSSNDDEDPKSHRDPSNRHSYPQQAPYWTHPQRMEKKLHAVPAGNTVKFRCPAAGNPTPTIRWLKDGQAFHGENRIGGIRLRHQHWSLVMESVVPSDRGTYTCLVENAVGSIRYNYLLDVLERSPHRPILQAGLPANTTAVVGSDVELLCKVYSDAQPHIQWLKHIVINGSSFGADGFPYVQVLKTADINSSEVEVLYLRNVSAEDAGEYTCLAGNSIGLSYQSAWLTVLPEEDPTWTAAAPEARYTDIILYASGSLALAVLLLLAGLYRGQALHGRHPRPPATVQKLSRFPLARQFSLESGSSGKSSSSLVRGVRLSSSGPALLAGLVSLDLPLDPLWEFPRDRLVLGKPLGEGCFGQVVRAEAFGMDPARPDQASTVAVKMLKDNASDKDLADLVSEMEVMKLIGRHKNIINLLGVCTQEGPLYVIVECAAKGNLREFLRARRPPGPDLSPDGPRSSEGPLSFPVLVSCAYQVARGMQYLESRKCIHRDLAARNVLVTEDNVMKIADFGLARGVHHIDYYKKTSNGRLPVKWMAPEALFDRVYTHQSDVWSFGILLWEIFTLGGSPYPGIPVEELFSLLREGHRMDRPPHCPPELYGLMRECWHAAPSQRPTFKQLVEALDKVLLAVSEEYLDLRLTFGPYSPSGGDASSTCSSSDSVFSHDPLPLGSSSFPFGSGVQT
Procedure: as §1, §2, §3, §4, §5

Hep3B = experiment: Cellular activity test (Cell titer-Glo), Hep3B; format: cell-based; settings: Homo sapiens, hepatocellular carcinoma cell with abnormal FGFR, 72 h, read-out: Inhibitory activity against cells (IC50) Hep3B
Description: (§6) Experimental Example 2: Celluar Activity Test of the Compounds of the Present Invention
(§7) Hep3B is a cell with abnormal FGFR in hepatocellular carcinoma RT112/84 is a cell with abnormal FGFR in bladder cancer DMS114 is a cell with abnormal FGFR in small cell lung cancer AN3CA is a cell with abnormal FGFR in endometrial cancer SNU-16 is a cell with abnormal FGFR in gastric cancer
as §2
(§8) Test instrument: The Espire multi-function microplate reader.
(§9) Each cell line was seeded into a 96-well plate, and adherent cultured overnight. Then, the compounds at different concentrations (12 dose groups, 3× DMSO serial dilutions) were added to a final concentration of 0.17-30000 nM, with the final content of DMSO of 5‰. The negative control well was medium containing 5‰ DMSO. After incubation at 37° C., 5% CO2, 95% humidity for 72 h, the cultures would be test. 30 μL of Cell titer-Glo reagent was added to each well and incubated for 30 min at room temperature. The final data were read by Espire microplate reader.

RT112/84 = experiment: Cellular activity test (Cell titer-Glo), RT112/84; format: cell-based; settings: Homo sapiens, RT112/84, bladder cancer cell with abnormal FGFR, 72 h, read-out: Inhibitory activity against cells (IC50) RT112/84
Description: as §6, §7, §2, §8, §9

DMS114 = experiment: Cellular activity test (Cell titer-Glo), DMS114; format: cell-based; settings: Homo sapiens, DMS-114, DMS114, small cell lung cancer cell with abnormal FGFR, 72 h, read-out: Inhibitory activity against cells (IC50) DMS114
Description: as §6, §7, §2, §8, §9

FGFR1, sequence (P11362 22-822): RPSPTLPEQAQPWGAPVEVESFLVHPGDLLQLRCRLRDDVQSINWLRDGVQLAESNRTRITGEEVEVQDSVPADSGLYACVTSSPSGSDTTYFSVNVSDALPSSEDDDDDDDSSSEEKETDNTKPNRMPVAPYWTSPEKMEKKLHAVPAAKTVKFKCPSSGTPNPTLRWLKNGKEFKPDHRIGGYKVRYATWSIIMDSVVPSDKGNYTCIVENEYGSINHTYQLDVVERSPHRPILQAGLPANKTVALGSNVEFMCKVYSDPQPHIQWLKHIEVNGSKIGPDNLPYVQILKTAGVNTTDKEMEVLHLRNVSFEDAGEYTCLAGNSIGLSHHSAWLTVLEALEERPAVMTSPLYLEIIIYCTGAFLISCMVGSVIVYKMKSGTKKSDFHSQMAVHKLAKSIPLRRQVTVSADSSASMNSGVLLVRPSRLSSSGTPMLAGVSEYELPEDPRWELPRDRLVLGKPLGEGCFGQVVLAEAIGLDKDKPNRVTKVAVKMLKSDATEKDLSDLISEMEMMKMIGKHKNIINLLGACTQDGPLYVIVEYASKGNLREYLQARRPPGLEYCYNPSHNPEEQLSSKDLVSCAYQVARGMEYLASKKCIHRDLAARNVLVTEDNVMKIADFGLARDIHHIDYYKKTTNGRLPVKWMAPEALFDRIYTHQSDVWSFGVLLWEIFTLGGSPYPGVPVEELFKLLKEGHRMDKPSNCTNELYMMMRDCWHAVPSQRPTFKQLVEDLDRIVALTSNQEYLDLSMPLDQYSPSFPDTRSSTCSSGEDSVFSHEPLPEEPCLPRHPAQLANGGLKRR

With `C=CC(=O)N1CCC(Nc2ncc3cc(-c4c(Cl)c(OC)cc(OC)c4Cl)ccc3n2)CC1` [Compound 10, 1-(4-((6-(2,6-dichloro-3,5-dimethoxyphenyl)quinazolin-2-yl)amino)piperidin-1-yl)prop-2-en-1-one] the IC50 (FGFR1) was less than 3 nM, the IC50 (FGFR3) was 7 nM and the IC50 (FGFR4) was 177 nM.

`C=CC(=O)N1C[C@@H](Nc2ncc3cc(-c4c(Cl)c(OC)cc(OC)c4Cl)ccc3n2)C[C@H]1C(=O)NC` [Compound 37] gave an IC50 (FGFR1) of 8.9 nM and an IC50 (FGFR4) of 317 nM.

`C=CC(=O)N1C[C@H](Nc2ncc3cc(-c4c(Cl)c(OC)cc(OC)c4Cl)ccc3n2)[C@@H](C)C1` [Compound 41] gave an IC50 (FGFR1) of 7 nM.

For `C=CC(=O)N1C[C@@H](Nc2ncc3cc(-c4c(Cl)c(OC)cc(OC)c4Cl)ccc3n2)C[C@H]1CC#N` [Compound 27, 2-((2S,4S)-1-acryloyl-4-((6-(2,6-dichloro-3,5-dimethoxyphenyl)quinazolin-2-yl)amino)pyrrolidin-2-yl)acetonitrile], the IC50 (FGFR1) was 18 nM, the IC50 (FGFR4) was 261 nM and the IC50 (Hep3B) was 82 nM. It also gave an IC50 (RT112/84) of 127 nM and an IC50 (DMS114) of 72 nM.

`C=CC(=O)N1C[C@@H](O)[C@H](Nc2ncc3cc(-c4c(Cl)c(OC)cc(OC)c4Cl)ccc3n2)C1` [Compound 39] gave an IC50 (FGFR1) of less than 3 nM and an IC50 (FGFR4) of 318 nM.

Molecule `C=CC(=O)N1C[C@@H](Nc2ncc3cc(-c4c(Cl)c(OC)cc(OC)c4Cl)ccc3n2)C[C@H]1C(=O)OCC` [Compound 36, ethyl(2S,4S)-1-acryloyl-4-((6-(2,6-dichloro-3,5-dimethoxyphenyl)quinazolin-2-yl)amino)pyrrolidin-2-carboxylate] has an IC50 (Hep3B) of 70.7 nM.

`C=CC(=O)N1C[C@@H](Nc2ncc3cc(-c4c(Cl)c(OC)cc(OC)c4Cl)ccc3n2)C2(CC2)C1` (stereo in doubt) [Compound 66] gave an IC50 (FGFR1) of 15 nM and an IC50 (FGFR4) of 318 nM.

With `CC#CC(=O)N1CCC[C@H](Nc2ncc3cc(-c4c(Cl)c(OC)cc(OC)c4Cl)ccc3n2)C1` [Compound 62] the IC50 (FGFR1) was 7 nM.

`C=CC(=O)N1C[C@@H](Nc2ncc3cc(-c4c(Cl)c(OC)cc(OC)c4Cl)ccc3n2)C[C@H]1COC` [Compound 53, 1-((2S,4S)-4-((6-(2,6-dichloro-3,5-dimethoxyphenyl)quinazolin-2-yl)amino)-2-(methoxymethyl)pyrrolidin-1-yl)prop-2-en-1-one] showed an IC50 (RT112/84) of 97 nM and an IC50 (DMS114) of 82 nM.

With `C=CC(=O)N1CC(Nc2ncc3cc(-c4c(Cl)c(OC)cc(OC)c4Cl)ccc3n2)C1` [Compound 9] the IC50 (FGFR1) was less than 3 nM, the IC50 (FGFR3) was 8 nM and the IC50 (FGFR4) was 301 nM.

`C=CC(=O)N1C[C@@H](Nc2ncc3cc(-c4c(Cl)c(OC)cc(OC)c4Cl)ccc3n2)C[C@H]1C(=O)N(C)C` [Compound 30, (2S,4S)-1-acryloyl-4-((6-(2,6-dichloro-3,5-dimethoxyphenyl)quinazolin-2-yl)amino)-N,N-dimethylpyrrolidin-2-carboxamide] gave an IC50 (FGFR1) of 9 nM, an IC50 (FGFR4) of 657 nM and an IC50 (Hep3B) of 77.5 nM. For the same molecule, the IC50 (RT112/84) was 117 nM.

For `C=CC(=O)N1CCC(Nc2ncc3cc(-c4c(Cl)c(OC)cc(OC)c4Cl)ccc3n2)C(C)C1` (stereo not drawn) [Compound 61], the IC50 (FGFR1) was 6 nM and the IC50 (FGFR4) was 268 nM.

Molecule `CC#CC(=O)N1CCC(Nc2ncc3cc(-c4c(Cl)c(OC)cc(OC)c4Cl)ccc3n2)CC1` [Compound 63] has an IC50 (FGFR1) of less than 3 nM and an IC50 (FGFR4) of 196 nM.

Work on `C=CC(=O)N1C[C@@H]2C[C@H]1[C@@H]2Nc1ncc2cc(-c3c(Cl)c(OC)cc(OC)c3Cl)ccc2n1` (relative stereo) [Compound 11, 1-(trans-5-((6-(2,6-dichloro-3,5-dimethoxyphenyl)quinazolin-2-yl)amino)-2-azabicyclo[2.1.1]hexane-2-yl)prop-2-en-1-one] yielded an IC50 (FGFR1) of 21 nM and an IC50 (FGFR4) of 198 nM.

`C=CC(=O)N1CC[C@@H](Nc2ncc3cc(-c4c(Cl)c(OC)cc(OC)c4Cl)ccc3n2)C1` [Compound 6, (R)-1-(3-((6-(2,6-dichloro-3,5-dimethoxyphenyl)quinazolin-2-yl)amino)pyrrolidin-1-yl)prop-2-en-1-one] was tested, and the IC50 (FGFR1) was less than 3 nM, the IC50 (FGFR3) was 18 nM and the IC50 (FGFR4) was 780 nM.

For `C=CC(=O)N1CCCC(Nc2ncc3cc(-c4c(Cl)c(OC)cc(OC)c4Cl)ccc3n2)C1` (stereo not drawn) [Compound 1], the IC50 (FGFR4) was 153 nM.

Source: US20200108070A2, “INHIBITORS OF FIBROBLAST GROWTH FACTOR RECEPTOR AND USE THEREOF” (Nanjing TransThera Biosciences Co. Ltd., priority 2016, published 2020)
